Test results taken from patent US20090311203A1, “GEM-DIFLUORIDE C-GLYCOPEPTIDE COMPOUNDS, THEIR PREPARATION AND USE PARTICULARLY FOR PRESERVATION OF BIOLOGICAL MATERIALS” (INSTITUT NATIONAL DES SCIENCES APPLIQUEES DE ROUEN (INSA), priority 2006, published 2009).
Where “and” joins values, the source holds several entries; their conditions need not be identical. Equal entries are not always repeated.

Key:
Type in all cases: cell-based
[1] = tested on: primary adult skin fibroblasts; test: Protection of fibroblasts against UV-C exposure; conditions: 37° C., 8.6 mM; for cell protection against UV (in words): UV-C 2 hours; for live cells still observed: UV-C (254 nm) for 2 hours
Protocol: In the following experiments, the studies were conducted at 37° C. on adult primary skin fibroblasts. The cells were exposed to UV-C irradiation for 2 hours in the presence of AAGP derivatives.

HELA cells = test: Survival of HELA cells subjected to UVC; conditions: exposed to UVC; low concentrations; FIGS. 37, 38 and 39
Protocol: FIGS. 37, 38 and 39 are representations of the effects of the various derivatives on the survival of HELA cells subjected to UVC.
Studies were conducted on HELA cells, exposed to UVC, in the presence of the various synthesised compounds, at low concentrations.

[2] = tested on: primary adult skin fibroblasts; test: Preservation of fibroblasts at low temperature (−3° C.); conditions: 8.6 mM
Protocol: The purpose of the following experiment is to test the preservation activity of AAGP 11 compounds at low temperatures.
The cells are thus incubated at −3° C. in the presence of the compound AAGP 11.

SMILES | cell protection against UV (in words) [1] | survival of HELA cells compared to the control (in words) (HELA cells) | also measured
COC(=O)[C@H](C)NC(=O)[C@H](CCCCNC(=O)C(F)(F)[C@]1(O)O[C@H](COCc2ccccc2)[C@H](OCc2ccccc2)[C@H](OCc2ccccc2)[C@H]1OCc1ccccc1)NC(=O)OCc1ccccc1 [AAGP-15] | excellent protective properties |  | 
C[C@H](NC(=O)[C@@H](N)CCCCNC(=O)C(F)(F)[C@]1(O)O[C@H](CO)[C@H](O)[C@H](O)[C@H]1O)C(=O)O [Compound 11] | high level of cell | Very satisfactory results | survival ([2]; after 6 days at −3° C., serum-free medium with 0.5 mM EDTA, control cells all dead): approximately 100% survival; cell preservation activity at low temperature (in words) ([2]; −3° C., listed as AAGP-11): very high preservation activity and 11 displays a very high; live cells still observed ([1]; after 72 hours, serum-free medium with 0.5 mM EDTA, all control cells dead): 92% live cells are still; live cells still observed ([1]; after 4 days, almost all dead in the control): After 4 days, 60% live
C[C@H](NC(=O)[C@@H](N)CCCCNC(=O)C(F)(F)[C@]1(O)O[C@H](CO)[C@H](O)[C@H](O)[C@H]1O)C(=O)O [Compound 12] |  | inferior results compared to the control | 
C[C@H](NC(=O)[C@@H](N)CCCNC(=O)C(F)(F)[C@]1(O)O[C@H](CO)[C@H](O)[C@H](O)[C@H]1O)C(=O)O [Compound 26] |  | inferior results compared to the control | 
N[C@@H](CCCCNC(=O)C(F)(F)[C@]1(O)O[C@H](CO)[C@H](O)[C@H](O)[C@H]1O)C(=O)NCC(=O)O [Compound 30] |  | improve the survival of these cells compared to the control | 
